Patent US20170157055A1, “PHAR[…] DETERRENT COMPOSITION” (priority 2014, published 2017)
Like-named read-outs stand apart in the source and are kept apart here.

Method: 350 mg of potassium bicarbonate equivalent to single dosage unit was added in beaker 1 while of potassium bicarbonate equivalent to three dosage units were added in beaker 2.

O=C([O-])O.[K+] [potassium bicarbonate]
pH of media after addition (beaker 1: 350 mg (single dosage unit) in 900 ml 0.01N HCl (initial pH 1.90)): 2.30
pH of media after addition (beaker 2: equivalent to three dosage units in 900 ml 0.01N HCl (initial pH 1.90)): 6.15
